Our source for the Ki and Kd values is article PMC10214524, “A Systematic Approach to the Discovery of Protein–Protein Interaction Stabilizers” (ACS Central Science, 2023).

As usually defined, the Ki is a measure of affinity in units of concentration, obtained from inhibition or displacement. One may read the Kd as the constant that tells how readily two partners part at equilibrium. A low value points to a tighter complex.

In assay [1] the target is T1, 14-3-3σ (Homo sapiens, UniProt P31947).
T1 sequence (P31947 1-231 limits assumed): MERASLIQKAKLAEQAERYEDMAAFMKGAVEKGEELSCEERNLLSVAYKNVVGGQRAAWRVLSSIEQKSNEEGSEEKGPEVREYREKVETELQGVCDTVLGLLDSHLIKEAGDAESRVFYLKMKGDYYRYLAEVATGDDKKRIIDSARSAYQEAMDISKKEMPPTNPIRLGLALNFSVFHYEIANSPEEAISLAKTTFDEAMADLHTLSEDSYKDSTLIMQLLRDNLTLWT
The experiment in a line: Ac-peptide competition assay against FITC-peptide (peptide affinity).
Experimental: (§1) 14-3-3σ/phosphopeptide binding curves to determine binding affinities. (A) Protein titration with 14 -3-3σ in
(§2) (B) Competition assay used to determine Ki of
(§3) acetylated FOXO1 11-mer peptide (Ac-FOXO1) for mass spectrometry experiments. Ac-FOXO1 was titrated from high to
(§4) used to determine Ki of acetylated C-RAF 11-mer peptide (Ac-CRAF). (E) Protein titration with 14-3-3σ in presence of 100
(§5) nM FITC-labeled ERα 15-mer peptide determined KD. (F) Competition assay used to determine Ki of acetylated ΕRα 15-me r
(§6) peptide (Ac-ERα). (G) Protein titration with 14-3-3σ in presence of 100 nM FITC-labeled USP8 13-mer peptide determined
(§7) KD. (H) Competition assay used to determine Ki of acetylated USP8 13-mer peptide (Ac-USP8) . ( I) Protein titration with 14 -
(§8) of acetylated SOS1 13 -mer peptide (Ac-SOS1).

Assay [2] addresses T1, 14-3-3σ. In words: 14-3-3σ titration to FITC-labeled phosphopeptide (peptide affinity).
Experimental: as §1, §2, §3, §4, §5, §6, §7, §8

SMILES strings stand for the structures. Where a SMILES comes first, the peptide text is derived from it.

Molecule `CC(=O)N[C@@H](CCCNC(=N)N)C(=O)N1CCC[C@H]1C(=O)N[C@@H](CCCNC(=N)N)C(=O)N[C@@H](CO)C(=O)N[C@@H](CS)C(=O)N[C@H](C(=O)N[C@@H](Cc1c[nH]c2ccccc12)C(=O)N1CCC[C@H]1C(=O)N[C@@H](CC(C)C)C(=O)N1CCC[C@H]1C(=O)N[C@@H](CCCNC(=N)N)C(N)=O)[C@@H](C)OP(=O)(O)O` [FOXO1, Ac-RPRSC{pT}WPLPR-CONH2] (HELM PEPTIDE1{[ac].R.P.R.S.C.[C[C@@H](OP(=O)(O)O)[C@H](N[*:1])C(=O)[*:2]].W.P.L.P.R.[am]}$$$$V2.0) yielded a Ki on 14-3-3σ [1] of 0.396 µM.

With `CC[C@H](C)[C@H](NC(=O)[C@H](CC(=O)O)NC(=O)[C@@H]1CCCN1C(=O)[C@H](CO)NC(=O)[C@H](COP(=O)(O)O)NC(=O)[C@H](Cc1ccc(O)cc1)NC(=O)[C@H](CO)NC(=O)[C@H](CCCNC(=N)N)NC(=O)[C@H](CCCCN)NC(=O)[C@H](CC(C)C)NC(=O)[C@H](CCCCN)NC(C)=O)C(=O)N[C@H](C(=O)N[C@@H](CCC(N)=O)C(N)=O)[C@@H](C)O` [USP8, Ac-KLKRSY{pS}SPDITQ-CONH2] (HELM PEPTIDE1{[ac].K.L.K.R.S.Y.[O=C([C@H](COP(=O)(O)O)N[*:1])[*:2]].S.P.D.I.T.Q.[am]}$$$$V2.0), the Ki on 14-3-3σ [1] is 14.3 µM. Further, the affinity on 14-3-3σ [2], expressed as Kd, was 3.77 µM.

`CC(=O)N[C@@H](CCCNC(=N)N)C(=O)N[C@@H](CCC(N)=O)C(=O)N[C@@H](CCCNC(=N)N)C(=O)N[C@@H](CO)C(=O)N[C@H](C(=O)N[C@@H](COP(=O)(O)O)C(=O)N[C@H](C(=O)N1CCC[C@H]1C(=O)N[C@@H](CC(N)=O)C(=O)N[C@H](C(=O)N[C@@H](Cc1c[nH]cn1)C(N)=O)C(C)C)[C@@H](C)O)[C@@H](C)O` [C-RAF, Ac-RQRST{pS}TPNVH-CONH2] (HELM PEPTIDE1{[ac].R.Q.R.S.T.[O=C([C@H](COP(=O)(O)O)N[*:1])[*:2]].T.P.N.V.H.[am]}$$$$V2.0) gave a Ki at 14-3-3σ [1] of 9.5 µM. The same molecule had a Kd on 14-3-3σ [2] of 4.64 µM.

Molecule `CC(=O)N1CCC[C@H]1C(=O)N[C@@H](CCCNC(=N)N)C(=O)N[C@@H](CCCNC(=N)N)C(=O)N[C@@H](CCCNC(=N)N)C(=O)N1CCC[C@H]1C(=O)N[C@@H](CCC(=O)O)C(=O)N[C@@H](COP(=O)(O)O)C(=O)N[C@@H](C)C(=O)N1CCC[C@H]1C(=O)N[C@@H](C)C(=O)N[C@@H](CCC(=O)O)C(=O)N[C@@H](CO)C(=O)N[C@@H](CO)C(N)=O` [SOS1, Ac-PRRRPE{pS}APAESS-CONH2] (HELM PEPTIDE1{[ac].P.R.R.R.P.E.[O=C([C@H](COP(=O)(O)O)N[*:1])[*:2]].A.P.A.E.S.S.[am]}$$$$V2.0) registered a Ki on 14-3-3σ [1] of 3.66 µM. The same molecule yielded a Kd at 14-3-3σ [2] of 5.06 µM.
